Reference: US20120046362A1, “ANTIVIRAL AGENT AND CLEANSING AGENT” (priority 2009, published 2012)
Like-named read-outs stand apart in the source and are kept apart here.

Tests used:
[1] = test system: Influenza virus A/whistling swan/Shimane/499/83 (H5N3); type: cell-based, avian influenza virus; conditions: for effect on the avian influenza virus (ability to inactivate): Example 10, each potassium soap diluted to 0.035 M; for infection dose of the avian influenza virus reduced to / ability to inactivate: Example 9, diluted to 0.0035 mol/L with purified water; for ability to inactivate the avian influenza virus, potassium versus sodium oleate soap: Example 4, 0.35 M oleate soap tested as in Example 2
[2] = test system: feline calicivirus; assay: Inactivation ability against infectivity of feline calicivirus (TCID50 on CRFK cells); type: cell-based; conditions: for inactivation ability against the feline calicivirus, potassium versus sodium oleate soap: Example 4, 0.35 M oleate soap
[3] = test system: CRFK cells
[4] = test system: MDCK (+) cells
[5] = Example 9, diluted to 0.0035 mol/L with purified water
[6] = Example 8, sample No. 19 versus surface-active agents other than soap (Table 4, 10.32 %)

Compound: CCCCC/C=C\C/C=C\CCCCCCCC(=O)[O-].[K+] [C18:2 (linoleate) soap]
- effect on the avian influenza virus (ability to inactivate) [1]: excellent

Compound: CCC=CCC=CCC=CCCCCCCCC(=O)[O-].[K+] [C18:3 (linolenate) soap]
- effect on the avian influenza virus (ability to inactivate) [1]: weak

Compound: CCCCCCCC/C=C\CCCCCCCC(=O)N(C)CC(=O)O [oleoyl sarcosine]
- infection dose of the feline calicivirus reduced to / ability to inactivate [2]: could not be reduced
- infection dose of the avian influenza virus reduced to / ability to inactivate [1]: about one-thousandth

Compound: CCCCCCCC/C=C\CCCCCCCC(=O)[O-].[K+] [potassium oleate soap, potassium oleate]
- inactivation ability against the feline calicivirus, potassium versus sodium oleate soap [2]: no difference
- infection dose of the feline calicivirus reduced to / ability to inactivate [2, 5]: excellent antiviral activity
- ability to inactivate the avian influenza virus, potassium versus sodium oleate soap [1]: no difference
- infection dose of the avian influenza virus reduced to / ability to inactivate [1]: excellent antiviral activity
- effect on the avian influenza virus (ability to inactivate) [1]: excellent

Compound: CCCCCCCC/C=C\CCCCCCCC(=O)[O-].[Na+] [sodium oleate soap, sodium oleate]
- inactivation ability against the feline calicivirus, potassium versus sodium oleate soap [2]: no difference
- ability to inactivate the avian influenza virus, potassium versus sodium oleate soap [1]: no difference

Compound: CCCCCCCC/C=C\CCCCCCCCOS(=O)(=O)[O-].[Na+] [sodium oleyl sulfate]
- infection dose of the feline calicivirus reduced to / ability to inactivate [2]: one-tenth or less
- infection dose of the avian influenza virus reduced to / ability to inactivate [1]: one-tenth or less

Compound: Polyoxyethylene sorbitan monooleate
- infection dose of the feline calicivirus reduced to / ability to inactivate [2, 5]: no ability to inactivate
- infection dose of the avian influenza virus reduced to / ability to inactivate [1]: no ability to inactivate

Compound: Sodium polyoxyethylene alkyl ether sulfate [compound 37]
- virus inactivation ability / antiviral activity (feline calicivirus) [2, 6]: low antiviral activity
- virus inactivation ability / antiviral activity (avian influenza virus) [1, 6]: low antiviral activity
- cytotoxicity [3]: high cytotoxicity
- cytotoxicity [4]: high cytotoxicity
